Results published in the Kinase Knowledgebase extract (Sharma et al. 2016).

Tests used:
[1] = biological target: MAPK14 (UniProt Q16539); assay: TNF Inhibition (In Vivo)
[2] = biological target: MAPK14 (UniProt Q16539); assay: MAPK14 Kinase Binding Inhibition
[3] = biological target: MAPK14 (UniProt Q16539); assay: MAPK14 Kinase Inhibition

Sequence of MAPK14 (Q16539 whole entry, looked up): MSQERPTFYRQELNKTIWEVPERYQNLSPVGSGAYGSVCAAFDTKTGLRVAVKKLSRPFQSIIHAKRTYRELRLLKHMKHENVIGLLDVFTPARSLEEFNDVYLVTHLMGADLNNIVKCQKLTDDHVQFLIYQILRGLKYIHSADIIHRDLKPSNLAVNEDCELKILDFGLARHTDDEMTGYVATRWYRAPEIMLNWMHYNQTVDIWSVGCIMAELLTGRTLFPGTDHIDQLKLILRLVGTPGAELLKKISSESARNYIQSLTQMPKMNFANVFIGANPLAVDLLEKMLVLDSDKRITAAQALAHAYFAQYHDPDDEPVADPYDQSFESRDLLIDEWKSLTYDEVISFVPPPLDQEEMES

Row | inhibition [2] [µM] | IC50 [3] [µM] | SMILES | inhibition [1] [µM]
1 | < 50 | – | CN1CCC(n2cnc(-c3ccc(F)cc3)c2-c2ccnc(NCc3ccccc3)n2)CC1 | < 50
2 | – | < 50 | Fc1ccc(Nc2nccc(-c3c(-c4ccc(F)cc4)ncn3C3CCNCC3)n2)cc1 | < 50
3 | 50 | – | NCCNc1nccc(-c2c(-c3ccc(F)cc3)ncn2C2CCNCC2)n1 | –
4 | – | < 50 | CSc1ccc(-c2ncn(C3CCNCC3)c2-c2ccnc(Nc3ccccc3)n2)cc1 | –
5 | – | – | Fc1ccc(-c2ncn(C3CCNCC3)c2-c2ccnc(NCCCn3ccnc3)n2)cc1 | < 50
6 | – | < 50 | Oc1cccc(Nc2nccc(-c3c(-c4ccc(F)cc4)ncn3C3CCNCC3)n2)c1 | –
7 | < 50 | – | CN1CCC(n2cnc(-c3ccc(F)cc3)c2-c2ccnc(NC3CCSCC3)n2)CC1 | –
8 | < 50 | – | CN1CCC(n2cnc(-c3ccc(F)cc3)c2-c2ccnc(NCc3cccc(Cl)c3)n2)CC1 | < 50
9 | – | < 50 | Fc1ccc(-c2ncn(C3CCNCC3)c2-c2ccnc(Nc3cccc(F)c3)n2)cc1 | < 50
10 | < 50 | – | CN1CCC(n2cnc(-c3ccc(F)cc3)c2-c2ccnc(NCCCN3CCOCC3)n2)CC1 | –
11 | < 50 | – | CN1CCC(n2cnc(-c3ccc(F)cc3)c2-c2ccnc(NCCO)n2)CC1 | < 50
12 | < 50 | – | CN1CCC(n2cnc(-c3ccc(F)cc3)c2-c2ccnc(NC3CCNCC3)n2)CC1 | –
13 | < 50 | – | Fc1ccc(-c2ncn(C3CCNCC3)c2-c2ccnc(Nc3ccccc3)c2)cc1 | < 50
14 | < 50 | – | O=C1CCC(n2cnc(-c3ccc(F)cc3)c2-c2ccnc(Nc3ccccc3)n2)CC1 | < 50
15 | – | < 50 | C[S+]([O-])c1ccc(-c2ncn(C3CCNCC3)c2-c2ccnc(Nc3ccccc3)n2)cc1 (stereo not given) | –
16 | < 50 | – | CCOCCCNc1nccc(-c2c(-c3ccc(F)cc3)ncn2C2CCNCC2)n1 | –
17 | < 50 | – | Fc1ccc(-c2ncn(C3CCNCC3)c2-c2ccnc(Nc3ccccc3)n2)cc1 | < 50
18 | < 50 | – | CN1CCC(n2cnc(-c3ccc(F)cc3)c2-c2ccnc(Nc3ccccc3)n2)CC1 | < 50
19 | < 50 | – | O[C@H]1CC[C@H](n2cnc(-c3ccc(F)cc3)c2-c2ccnc(Nc3ccccc3)n2)CC1 | –

Row | inhibition [2] [µM] | IC50 [3] [µM] | SMILES | inhibition [1] [µM]
20 | – | < 50 | CCOC(=O)N1CCC(n2cnc(-c3ccc(F)cc3)c2-c2ccnc(Nc3ccc(OCc4ccccc4)cc3)n2)CC1 | –
21 | – | < 50 | CCOC(=O)N1CCC(n2cnc(-c3ccc(F)cc3)c2-c2ccnc(Nc3cccc(OCc4ccccc4)c3)n2)CC1 | –
22 | – | < 50 | Fc1ccc(-c2ncn(C3CCNCC3)c2-c2ccnc(Nc3ccc(F)c(F)c3)n2)cc1 | –
23 | – | < 50 | Fc1ccc(-c2ncn(C3CCNCC3)c2-c2ccnc(Nc3cccc(C(F)(F)F)c3)n2)cc1 | –
24 | – | < 50 | COc1ccccc1Nc1nccc(-c2c(-c3ccc(F)cc3)ncn2C2CCNCC2)n1 | –
25 | < 50 | – | CN1CCC(n2cnc(-c3ccc(F)cc3)c2-c2ccnc(NC3CC(C)(C)NC(C)(C)C3)n2)CC1 | –
26 | < 50 | – | CC1(C)CC(n2cnc(-c3ccc(F)cc3)c2-c2ccnc(NCCO)n2)CC(C)(C)N1 | < 50
27 | < 50 | – | CCOC(=O)N1CCC(Nc2nccc(-c3c(-c4ccc(F)cc4)ncn3C3CCN(C)CC3)n2)CC1 | –
28 | – | < 50 | COc1ccc(Nc2nccc(-c3c(-c4ccc(F)cc4)ncn3C3CCNCC3)n2)cc1 | –
29 | < 50 | – | Fc1ccc(cc1)c2ncn(C3CCNCC3)c2c4ccnc(NCCCN5=CNC=C5)n4 | –
30 | < 50 | – | CN1CCC(n2cnc(-c3ccc(F)cc3)c2-c2ccnc(NC3CCN(Cc4ccccc4)CC3)n2)CC1 | –
31 | < 50 | – | CN1CCC(n2cnc(-c3ccc(F)cc3)c2-c2ccnc(NCCc3c[nH]c4ccc(Cl)cc34)n2)CC1 | –
32 | < 50 | – | CN1CCC(n2cnc(-c3ccc(F)cc3)c2-c2ccnc(NCc3cccc4ccccc34)n2)CC1 | < 50
33 | < 50 | – | CC1(C)CC(n2cnc(-c3ccc(F)cc3)c2-c2ccnc(Nc3ccccc3)n2)CC(C)(C)N1 | –
34 | < 50 | – | CN1CCC(n2cnc(-c3ccc(F)cc3)c2-c2ccnc(Nc3cccc(Br)c3)n2)CC1 | –
35 | – | < 50 | COc1cccc(Nc2nccc(-c3c(-c4ccc(F)cc4)ncn3C3CCNCC3)n2)c1 | –
36 | – | < 50 | Oc1ccc(Nc2nccc(-c3c(-c4ccc(F)cc4)ncn3C3CCNCC3)n2)cc1 | –
37 | – | < 50 | Fc1ccc(-c2ncn(C3CCNCC3)c2-c2ccnc(Nc3ccccc3F)n2)cc1 | < 50
38 | < 50 | – | CN1CCC(n2cnc(-c3ccc(F)cc3)c2-c2ccnc(NCc3ccc4c(c3)OCO4)n2)CC1 | –
